Source: PubChem BioAssay AID328 (DTP/NCI, 2004)
Several values for one entry are separate records, joined by “and”; a condition that tells them apart may be missing. Identical values can stand only once. Inconclusive results and toxic doses are left out. How the source made its calls: active means survival T/C of 150% or more; inactive means T/C below 125% in these data.

System: BDF1 mice, P388 leukemia ip, median survival T/C
Experiment: NCI In Vivo Anticancer Drug Screen. Data for tumor model P388 Leukemia (intraperitoneal) in B6D2F1 (BDF1) mice
Settings: endpoint: median survival time, higher = longer survival
Procedure, shortened: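 Transplantable tumour in mice; compound vs vehicle dosing; survival scored; ratio of treated to control reported.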

[1] = dose: 100.0 mg/kg/injection, schedule: Q04DX003 (ip), vehicle: saline
[2] = dose: 200.0 mg/kg/injection, schedule: Q04DX003 (ip), vehicle: saline
[3] = dose: 100.0 mg/kg/injection, schedule: Q04DX003 (ip), vehicle: saline with Tween-80
[4] = dose: 200.0 mg/kg/injection, schedule: Q04DX003 (ip), vehicle: saline with Tween-80
[5] = dose: 400.0 mg/kg/injection, schedule: Q04DX003 (ip), vehicle: saline with Tween-80
[6] = dose: 100.0 mg/kg/injection, schedule: Q01DX009 (ip), vehicle: Klucel (hydroxypropylcellulose) (HPC)
[7] = dose: 200.0 mg/kg/injection, schedule: Q01DX009 (ip), vehicle: Klucel (hydroxypropylcellulose) (HPC)
[8] = dose: 12.5 mg/kg/injection, schedule: Q01DX009 (ip), vehicle: saline with Tween-80
[9] = dose: 25.0 mg/kg/injection, schedule: Q01DX009 (ip), vehicle: saline with Tween-80
[10] = dose: 50.0 mg/kg/injection, schedule: Q01DX009 (ip), vehicle: saline with Tween-80
[11] = dose: 100.0 mg/kg/injection, schedule: Q01DX009 (ip), vehicle: saline with Tween-80
[12] = dose: 200.0 mg/kg/injection, schedule: Q01DX009 (ip), vehicle: saline with Tween-80
[13] = dose: 50.0 mg/kg/injection, schedule: Q04DX003 (ip), vehicle: saline

Measured: T/C

CN(C)CCCNc1ccc(O)c2c1C(=O)c1ccccc1C2=O
inactive: dose: 6.25 mg/kg/injection, schedule: Q01DX009 (ip), vehicle: saline 91 % of control | dose: 12.5 mg/kg/injection, schedule: Q01DX009 (ip), vehicle: saline 110 % of control and 114 % of control | dose: 25.0 mg/kg/injection, schedule: Q01DX009 (ip), vehicle: saline 103 % of control and 109 % of control and 112 % of control | [1] 96 % of control | [2] 112 % of control

CC(=O)c1nc2c(N)nc(N)nc2nc1C
inactive: [3] 92 % of control | [4] 111 % of control | [5] 106 % of control

CC1CN(C(=O)Nc2ccc(Cl)cc2)CC(C)O1 (configuration not stated)
inactive: dose: 75.0 mg/kg/injection, schedule: Q01DX009 (ip), vehicle: Klucel (hydroxypropylcellulose) (HPC) 110 % of control | dose: 150.0 mg/kg/injection, schedule: Q01DX009 (ip), vehicle: Klucel (hydroxypropylcellulose) (HPC) 110 % of control | dose: 300.0 mg/kg/injection, schedule: Q01DX009 (ip), vehicle: Klucel (hydroxypropylcellulose) (HPC) 120 % of control

COC1C(O)C(OC2CCC3(C)C(CCC4C3CCC3(C)C(C5=CC(=O)OC5)CCC43O)C2)OC(C)C1OC(C)=O (configuration not stated)
inactive: dose: 9.6 mg/kg/injection, schedule: Q01DX009 (ip), vehicle: saline with Tween-80 115 % of control | dose: 22.0 mg/kg/injection, schedule: Q01DX009 (ip), vehicle: saline with Tween-80 108 % of control | dose: 33.0 mg/kg/injection, schedule: Q01DX009 (ip), vehicle: saline with Tween-80 100 % of control

CC1(c2cccc([N+](=O)[O-])c2)OCCO1
inactive: dose: 100.0 mg/kg/injection, schedule: Q01DX009 (ip), vehicle: other 109 % of control | dose: 100.0 mg/kg/injection, schedule: Q04DX003 (ip), vehicle: other 100 % of control | dose: 200.0 mg/kg/injection, schedule: Q01DX009 (ip), vehicle: other 100 % of control | dose: 200.0 mg/kg/injection, schedule: Q04DX003 (ip), vehicle: other 95 % of control | dose: 400.0 mg/kg/injection, schedule: Q01DX009 (ip), vehicle: other 100 % of control | dose: 400.0 mg/kg/injection, schedule: Q04DX003 (ip), vehicle: other 91 % of control

COC(=O)c1c(O)cc(OC)cc1OC
inactive: [6] 111 % of control | dose: 100.0 mg/kg/injection, schedule: Q04DX003 (ip), vehicle: Klucel (hydroxypropylcellulose) (HPC) 100 % of control | [7] 100 % of control | dose: 200.0 mg/kg/injection, schedule: Q04DX003 (ip), vehicle: Klucel (hydroxypropylcellulose) (HPC) 95 % of control | dose: 400.0 mg/kg/injection, schedule: Q01DX009 (ip), vehicle: Klucel (hydroxypropylcellulose) (HPC) 100 % of control | dose: 400.0 mg/kg/injection, schedule: Q04DX003 (ip), vehicle: Klucel (hydroxypropylcellulose) (HPC) 95 % of control

O=[N+]([O-])c1ccc(S/N=C\c2ccccc2)c([N+](=O)[O-])c1
inactive: [8] 107 % of control | [9] 105 % of control | [10] 105 % of control

O=S1(=O)CCN(C2CCCCCC2)CC1
inactive: dose: 50.0 mg/kg/injection, schedule: Q01DX009 (ip), vehicle: Klucel (hydroxypropylcellulose) (HPC) 106 % of control | [6] 111 % of control | [7] 109 % of control

COc1ccc2c(c1)CC[C@@H]1[C@@H]2CC[C@@]2(C)[C@H]1CC[C@@]2(O)C(F)=C(F)F
inactive: [10] 118 % of control | [11] 113 % of control | [12] 104 % of control

COc1cc2c(c3c1c(=O)c1ccccc1n3C)C=CC(C)(C)O2
inactive: dose: 12.5 mg/kg/injection, schedule: Q01DX010 (ip), vehicle: saline 100 % of control | dose: 25.0 mg/kg/injection, schedule: Q01DX010 (ip), vehicle: saline 90 % of control | dose: 50.0 mg/kg/injection, schedule: Q01DX010 (ip), vehicle: saline 90 % of control | dose: 100.0 mg/kg/injection, schedule: Q01DX010 (ip), vehicle: saline 90 % of control

CC(OC(=O)Nc1cccc(Cl)c1)C(=O)O (configuration not stated)
inactive: dose: 100.0 mg/kg/injection, schedule: Q01DX009 (ip), vehicle: gum acacia 107 % of control | dose: 200.0 mg/kg/injection, schedule: Q01DX009 (ip), vehicle: gum acacia 96 % of control | dose: 400.0 mg/kg/injection, schedule: Q01DX009 (ip), vehicle: gum acacia 100 % of control

COc1cccc(S(=O)(=O)c2ccc([N+](=O)[O-])c3nonc23)c1
inactive: [8] 111 % of control | [9] 111 % of control

COc1ccc(CNCCO)cc1
inactive: [13] 108 % of control | dose: 100.0 mg/kg/injection, schedule: Q01DX009 (ip), vehicle: saline 109 % of control | [1] 100 % of control and 116 % of control | dose: 200.0 mg/kg/injection, schedule: Q01DX009 (ip), vehicle: saline 90 % of control | [2] 91 % of control | dose: 400.0 mg/kg/injection, schedule: Q01DX009 (ip), vehicle: saline 111 % of control | dose: 400.0 mg/kg/injection, schedule: Q04DX003 (ip), vehicle: saline 91 % of control and 95 % of control

COc1ccc2ccccc2c1/C=N/N1CCCCC1
inactive: [3] 110 % of control | [4] 95 % of control | [5] 115 % of control

C1=C(c2ccccc2)C(c2ccccc2)=C(c2ccccc2)C(c2ccccc2)C(c2ccccc2)=N1 (configuration not stated)
inactive: [10] 100 % of control | [11] 92 % of control | [12] 106 % of control

O=C1C=CC(=O)N1c1ccc(Cl)cc1
active: dose: 2.5 mg/kg/injection, schedule: Q01DX009 (ip), vehicle: Klucel (hydroxypropylcellulose) (HPC) 159 % of control
inactive: dose: 1.25 mg/kg/injection, schedule: Q04DX003 (ip), vehicle: Klucel (hydroxypropylcellulose) (HPC) 114 % of control | dose: 2.5 mg/kg/injection, schedule: Q04DX003 (ip), vehicle: Klucel (hydroxypropylcellulose) (HPC) 122 % of control | dose: 5.0 mg/kg/injection, schedule: Q04DX003 (ip), vehicle: Klucel (hydroxypropylcellulose) (HPC) 108 % of control | dose: 10.0 mg/kg/injection, schedule: Q04DX003 (ip), vehicle: Klucel (hydroxypropylcellulose) (HPC) 107 % of control | dose: 20.0 mg/kg/injection, schedule: Q01DX009 (ip), vehicle: Klucel (hydroxypropylcellulose) (HPC) 115 % of control

CC1=CC=CC2=NC(=O)CCN12
inactive: [10] 94 % of control | [11] 94 % of control | [12] 100 % of control

Cc1ccc(Nc2c([N+](=O)[O-])c(=O)n(C)c(=O)n2C)cc1C
inactive: [10] 103 % of control | [11] 96 % of control | [12] 96 % of control

Cc1cc(O)n(Cc2ccccc2)c(=O)c1
inactive: [3] 102 % of control | [4] 87 % of control | [5] 107 % of control

CC1=CC(=O)NC1=O
inactive: dose: 4.3 mg/kg/injection, schedule: Q01DX009 (ip), vehicle: saline 114 % of control | dose: 6.4 mg/kg/injection, schedule: Q01DX009 (ip), vehicle: saline 102 % of control | dose: 9.6 mg/kg/injection, schedule: Q01DX009 (ip), vehicle: saline 117 % of control | dose: 14.0 mg/kg/injection, schedule: Q01DX009 (ip), vehicle: saline 123 % of control

NC(=S)N/N=C\c1nccc2c(N)cccc12
inactive: [10] 91 % of control | dose: 75.0 mg/kg/injection, schedule: Q01DX009 (ip), vehicle: saline with Tween-80 89 % of control
active: dose: 6.25 mg/kg/injection, schedule: Q01DX009 (ip), vehicle: saline with Tween-80 186 % of control | [8] 191 % of control | [9] 195 % of control

O=C(O)c1c(I)c(I)c(I)c(I)c1C(=O)c1ccccc1
inactive: dose: 44.0 mg/kg/injection, schedule: Q04DX003 (ip), vehicle: saline 109 % of control | dose: 67.0 mg/kg/injection, schedule: Q04DX003 (ip), vehicle: saline with Tween-80 104 % of control | dose: 67.0 mg/kg/injection, schedule: Q04DX003 (ip), vehicle: saline 104 % of control | [11] 111 % of control | [3] 104 % of control | [1] 118 % of control | dose: 150.0 mg/kg/injection, schedule: Q04DX003 (ip), vehicle: saline with Tween-80 109 % of control | dose: 150.0 mg/kg/injection, schedule: Q04DX003 (ip), vehicle: saline 113 % of control | [12] 111 % of control | [4] 110 % of control | [5] 120 % of control

[Cl][Co][Cl].[NH-]CCN1CC1
inactive: dose: 25.0 mg/kg/injection, schedule: Q04DX003 (ip), vehicle: saline 103 % of control | [13] 107 % of control | [1] 103 % of control

CC(=O)CC(C)=O.CC(=O)CC(C)=O.[CH3][Sn][CH3]
inactive: dose: 25.0 mg/kg/injection, schedule: Q01DX001 (ip), vehicle: Klucel (hydroxypropylcellulose) (HPC) 111 % of control | dose: 50.0 mg/kg/injection, schedule: Q01DX001 (ip), vehicle: Klucel (hydroxypropylcellulose) (HPC) 119 % of control
